Source: US4965280A, “Antifungal carbinols” (E. I. Du Pont de Nemours and Company, priority 1989, dated 1990)

Columns and labels:
GOOSEGRASS = experiment: Test F; format: in vivo, Eleusine indica
Text: (§1) Weed species were planted 3 or 4 per 15-cm diameter pot in Sassafras sandy loam (pH 6.8; 1% OM). Cotton was planted separately in the same sized pot. Postemergence plantings were made 12-16 days prior to treating so plants were in the 2- to 3-leaf stage (5-12 cm tall). Preemergence plantings were made the day before treating. Compounds were sprayed in a suitable non-phytotoxic solvent at 374 l/ha, then after 3 weeks of growth in a greenhouse, plant responses were visually rated on a percent scale where 0=no injury and 100=plant death.

LARGE CRABGRASS = experiment: Test F; format: in vivo, Digitaria sanguinalis
Text: as §1

GROUND CHERRY = experiment: Test F; format: in vivo, Physalis heterophylla
Text: as §1

COKER COTTON = experiment: Test F; format: in vivo, Gossypium hirsutum
Text: as §1

BRDLF SNGLGRASS = experiment: Test F; format: in vivo, Brachiaria platyphylla
Text: as §1

LADY SMARTWEED [1] = experiment: Test E; format: in vivo, Polygonum persicaria
Text: Seeds of the following crops and weeds are sown into 15 cm pots containing Sassafras sandy loam soil: wheat (Triticum aestivum cv. Park), barley (Hordeum vulgare cv. Bonanza), sugarbeet (Beta vulgaris cv. USH-11), rapeseed (Brassica napus cv. Jet Neuf), black nightshade (Solanum nigrum), chickweed (Stellaria media), lambsquarter (Chenopodium album), Galium aparine, knotweed (Polygonum aviculare), Kochia scoparia, Matricaria indora, redroot pigweed (Amaranthus retroflexus), smartweed (Polygonum persicaria), speedwell (Veronica persica), wild buckwheat (Polygonum convolvulus), wild mustard (Brassica spp.), wild radish (Raphanus raphanistrum), annual bluegrass (PO annua), annual ryegrass (Lolium multiflorum), blackgrass (Alopercurus mysuroides), green foxtail (Setaria viridis), and wild oats (Avena fatua). Compounds are formulated in a nonphytotoxic solvent and applied to the plants as a foliar spray or applied to the soil surface. Plants are treated at two stages: preemergence, or postemergence when the sugarbeets are at the 2-3 true leaf stage. Plants are grown in a temperature-controlled greenhouse for the duration of the test.
Weed control and crop injury are evaluated visually at 3-4 weeks after compound application, using a scale of 0 to 100%, where 0=no injury and 100=complete death of the plant. All plants are rated with respect to untreated plants (checks) grown in the greenhouse under identical conditions to the treated plants.

PURPLE NUTSEDGE = experiment: Test F; format: in vivo, Cyperus rotundus
Text: as §1

JOHNSONGRASS = experiment: Test F; format: in vivo, Sorghum halepense
Text: as §1

VELVETLEAF = experiment: Test F; format: in vivo, Abutilon theophrasti
Text: as §1

COCKLEBUR = experiment: Test F; format: in vivo, Xanthium pensylvanicum
Text: as §1

SICKLEPOD = experiment: Test F; format: in vivo, Cassia obtusifolia
Text: as §1

FALL PANICUM = experiment: Test F; format: in vivo, Panicum dichotomiflorum
Text: as §1

LADY SMARTWEED [2] = experiment: Test F; format: in vivo, Polygonum persicaria
Text: as §1

BERMUDAGRASS = experiment: Test F; format: in vivo, Cynodon dactylon
Text: as §1

RICE JAP TOL = experiment: Test C rice paddy; format: in vivo, Japonica rice; conditions: 21 days
Outline: (§2)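 Silt loam saturated; rice (Japonica, Indica; 2.0–2.5 leaf) and weed seedlings/sprouted tubers (water plantain, Scirpus, Cyperus) transplanted, barnyardgrass seeded. D3–4: flood to 3 cm, held throughout. ≤24 h later: test cpd in nonphytotoxic solvent into paddy water. Greenhouse.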

RICE INDICA TOL = experiment: Test C rice paddy; format: in vivo; conditions: 21 days
Outline: as §2

C=C(c1ccc(F)cc1)C(O)(Cn1cncn1)c1ccc(F)cc1F (stereo not drawn) [Example 4, 2-(2,4-Difluorophenyl)-3-(4-fluorophenyl)-1-(1H-1,2,4-triazol-1-yl)-3-buten-2-ol]
plant response (GOOSEGRASS; PREEMERGENCE 0032 GM/HA): 80%
plant response (GOOSEGRASS; PREEMERGENCE 0064 GM/HA): 80%
plant response (GOOSEGRASS; PREEMERGENCE 0125 GM/HA): 100%
plant response (GOOSEGRASS; PREEMERGENCE 0250 GM/HA): 100%
plant response (GOOSEGRASS; PREEMERGENCE 0500 GM/HA): 100%
plant response (LARGE CRABGRASS; PREEMERGENCE 0032 GM/HA): 0%
plant response (LARGE CRABGRASS; PREEMERGENCE 0064 GM/HA): 20%
plant response (LARGE CRABGRASS; PREEMERGENCE 0125 GM/HA): 100%
plant response (LARGE CRABGRASS; PREEMERGENCE 0250 GM/HA): 100%
plant response (LARGE CRABGRASS; PREEMERGENCE 0500 GM/HA): 100%
plant response (GROUND CHERRY; PREEMERGENCE 0032 GM/HA): 0%
plant response (GROUND CHERRY; PREEMERGENCE 0064 GM/HA): 0%
plant response (GROUND CHERRY; PREEMERGENCE 0125 GM/HA): 0%
plant response (GROUND CHERRY; PREEMERGENCE 0250 GM/HA): 0%
plant response (GROUND CHERRY; PREEMERGENCE 0500 GM/HA): 0%
plant response (COKER COTTON; PREEMERGENCE 0032 GM/HA): 0%
plant response (COKER COTTON; PREEMERGENCE 0064 GM/HA): 0%
plant response (COKER COTTON; PREEMERGENCE 0125 GM/HA): 0%
plant response (COKER COTTON; PREEMERGENCE 0250 GM/HA): 0%
plant response (COKER COTTON; PREEMERGENCE 0500 GM/HA): 0%
plant response (BRDLF SNGLGRASS; PREEMERGENCE 0032 GM/HA): 0%
plant response (BRDLF SNGLGRASS; PREEMERGENCE 0064 GM/HA): 0%
plant response (BRDLF SNGLGRASS; PREEMERGENCE 0125 GM/HA): 0%
plant response (BRDLF SNGLGRASS; PREEMERGENCE 0250 GM/HA): 0%
plant response (BRDLF SNGLGRASS; PREEMERGENCE 0500 GM/HA): 30%
plant response (LADY SMARTWEED [1]; PREEMERGENCE 0500 GM/HA): 100%
plant response (PURPLE NUTSEDGE; PREEMERGENCE 0032 GM/HA): 0%
plant response (PURPLE NUTSEDGE; PREEMERGENCE 0064 GM/HA): 0%
plant response (PURPLE NUTSEDGE; PREEMERGENCE 0125 GM/HA): 0%
plant response (PURPLE NUTSEDGE; PREEMERGENCE 0250 GM/HA): 0%
plant response (PURPLE NUTSEDGE; PREEMERGENCE 0500 GM/HA): 0%
plant response (JOHNSONGRASS; PREEMERGENCE 0032 GM/HA): 0%
plant response (JOHNSONGRASS; PREEMERGENCE 0064 GM/HA): 0%
plant response (JOHNSONGRASS; PREEMERGENCE 0125 GM/HA): 20%
plant response (JOHNSONGRASS; PREEMERGENCE 0250 GM/HA): 50%
plant response (JOHNSONGRASS; PREEMERGENCE 0500 GM/HA): 50%
plant response (VELVETLEAF; PREEMERGENCE 0032 GM/HA): 0%
plant response (VELVETLEAF; PREEMERGENCE 0064 GM/HA): 0%
plant response (VELVETLEAF; PREEMERGENCE 0125 GM/HA): 0%
plant response (VELVETLEAF; PREEMERGENCE 0250 GM/HA): 0%
plant response (VELVETLEAF; PREEMERGENCE 0500 GM/HA): 30%
plant response (COCKLEBUR; PREEMERGENCE 0032 GM/HA): 0%
plant response (COCKLEBUR; PREEMERGENCE 0064 GM/HA): 0%
plant response (COCKLEBUR; PREEMERGENCE 0125 GM/HA): 0%
plant response (COCKLEBUR; PREEMERGENCE 0250 GM/HA): 0%
plant response (COCKLEBUR; PREEMERGENCE 0500 GM/HA): 0%
plant response (SICKLEPOD; PREEMERGENCE 0032 GM/HA): 0%
plant response (SICKLEPOD; PREEMERGENCE 0064 GM/HA): 0%
plant response (SICKLEPOD; PREEMERGENCE 0125 GM/HA): 0%
plant response (SICKLEPOD; PREEMERGENCE 0250 GM/HA): 0%
plant response (SICKLEPOD; PREEMERGENCE 0500 GM/HA): 0%
plant response (FALL PANICUM; PREEMERGENCE 0032 GM/HA): 90%
plant response (FALL PANICUM; PREEMERGENCE 0064 GM/HA): 90%
plant response (FALL PANICUM; PREEMERGENCE 0125 GM/HA): 90%
plant response (FALL PANICUM; PREEMERGENCE 0250 GM/HA): 100%
plant response (FALL PANICUM; PREEMERGENCE 0500 GM/HA): 100%
plant response (LADY SMARTWEED [2]; PREEMERGENCE 0032 GM/HA): 0%
plant response (LADY SMARTWEED [2]; PREEMERGENCE 0064 GM/HA): 0%
plant response (LADY SMARTWEED [2]; PREEMERGENCE 0125 GM/HA): 0%
plant response (LADY SMARTWEED [2]; PREEMERGENCE 0250 GM/HA): 20%
plant response (LADY SMARTWEED [2]; PREEMERGENCE 0500 GM/HA): 20%
plant response (BERMUDAGRASS; PREEMERGENCE 0032 GM/HA): 0%
plant response (BERMUDAGRASS; PREEMERGENCE 0064 GM/HA): 20%
plant response (BERMUDAGRASS; PREEMERGENCE 0125 GM/HA): 95%
plant response (BERMUDAGRASS; PREEMERGENCE 0250 GM/HA): 100%
plant response (BERMUDAGRASS; PREEMERGENCE 0500 GM/HA): 100%

C=C(c1ccccc1Cl)C(O)(Cn1cncn1)c1ccc(F)cc1F (stereo not drawn) [Example 35]
plant response (RICE JAP TOL; 0032 G/HA): 0
plant response (RICE JAP TOL; 0125 G/HA): 20
plant response (RICE JAP TOL; 0500 G/HA): 50
plant response (RICE JAP TOL; 2000 G/HA): 50
plant response (RICE INDICA TOL; 0032 G/HA): 0
plant response (RICE INDICA TOL; 0125 G/HA): 55
plant response (RICE INDICA TOL; 0500 G/HA): 55
plant response (RICE INDICA TOL; 2000 G/HA): 60

C=C(c1ccc(F)cc1)C(O)(Cn1cncn1)c1ccccc1F (stereo not drawn) [Example 644]
plant response (LADY SMARTWEED [1]; POSTEMERGENCE 0064 GM/HA): 0%
plant response (LADY SMARTWEED [1]; POSTEMERGENCE 0125 GM/HA): 100%
plant response (LADY SMARTWEED [1]; POSTEMERGENCE 0250 GM/HA): 100%
plant response (LADY SMARTWEED [1]; POSTEMERGENCE 0500 GM/HA): 100%
